Patent EP4803080A1, “METHOD FOR TREATING LEUKEMIA” (Shenzhen TargetRx Co., Ltd., priority 2023, dated 2025)

Tested on: SUP-B15 cells
Assay: Efficacy study in the SUP-B15 subcutaneous xenograft model
Format: in vivo
Conditions: for TGI (%): after 21 days of administration
Experimental: SUP-B15 cells, a Philadelphia chromosome-positive acute lymphoblastic leukemia cell line, were cultured in vitro using IMDM medium supplemented with 20% fetal bovine serum. When the cell count reached the required level, the cells were harvested, counted, and inoculated.
Animals: NCG mice, female, aged 6-8 weeks, weighing 18-22 grams. A total of 35 mice (including 15 spare mice) were used. The mice were provided by Jiangsu GemPharmatech Co., Ltd. or other qualified suppliers.
Tumor inoculation: 0.1 mL (10×10^6 cells) SUP-B15 cells and 0.1 mL Matrigel (total volume 0.2 mL) were mixed thoroughly and subcutaneously inoculated into the right back of each mouse.
Animal grouping and dosing: Grouping and dosing began when the average tumor volume reached 150-200 mm^3.
Animal Grouping: Animals were weighed and tumor volumes were measured prior to drug administration. Grouping was performed randomly based on tumor volume.
Observation: Daily monitoring of animal health status and mortality, routine checks include observing tumor growth and the impact of drug treatment on daily behavioral performance such as activity levels, food and water intake, weight changes (measured twice a week or every other day), external signs, or other abnormalities. The number of animal deaths and side effects within each group based on the number of animals in each group were recorded.
Test indicators: The test indicators were to examine whether tumor growth is inhibited, delayed, or cured. Tumor diameter was measured three times a week using a vernier caliper. The formula for calculating tumor volume was: V = 0.5a × b^2, where a and b represent the long and short diameters of the tumor, respectively.
The antitumor efficacy of the compounds was evaluated using TGI (%) or the relative tumor proliferation rate T/C (%). TGI (%) reflects the tumor growth inhibition rate.
Relative Tumor Proliferation Rate T/C (%): The calculation formula is as follows: T/C % = TRTV / CRTV × 100% (TRTV: treatment group RTV; CRTV: negative control group RTV). The relative tumor volume (RTV) is calculated based on tumor measurement results, with the formula RTV = Vt / V0, where V0 is the average tumor volume measured at the time of grouping (i.e., d0), and Vt is the average tumor volume at a specific measurement time. TRTV and CRTV use data from the same day.
At the end of the test, tumor weight will be measured, and the Tweight/Cweight percentage will be calculated, where Tweight and Cweight represent the tumor weights of the treatment group and the vehicle control group, respectively.
Data analysis: T-test is used for comparisons between two groups. One-way ANOVA is used for comparisons among three or more groups. […] All data analyses are performed using SPSS 17.0. A p < 0.05 is considered statistically significant.

## O=C(Nc1ccc(OC(F)(F)Cl)cc1)c1cnc(N2CC[C@@H](F)C2)c(-c2cnccn2)c1 [Compound A, (R)-N-(4-(chlorodifluoromethoxy)phenyl)-6-(3-fluoropyrrolidin-1-yl)-5-(pyrazin-2-yl)nicotinamide]
5 mg/kg p.o. qd
  TGI (%): 119.5%
15 mg/kg p.o. qd
  TGI (%): 124.7%
45 mg/kg p.o. qd
  TGI (%): 125.6%
Any treatment group (5, 15, 45 mg/kg p.o. qd × 3 weeks)
  weight loss: No significant weight loss
